Test results: PubChem BioAssay (NCI)
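Exposure lasted 48 hours, with cells grown in 96-well plates and compounds tested at five concentrations. GI50: concentration for 50% inhibition of growth. TGI marks complete inhibition of growth.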

Columns and labels:
Assay in all cases: growth of human tumour cells (NCI), 48 h
TK-10 renal = tested on: TK-10 renal
HCC-2998 colon = tested on: HCC-2998 colon
SK-MEL-5 melanoma = tested on: SK-MEL-5 melanoma
SK-MEL-2 melanoma = tested on: SK-MEL-2 melanoma
SW-620 colon = tested on: SW-620 colon
SF-539 CNS = tested on: SF-539 CNS
SK-OV-3 ovarian = tested on: SK-OV-3 ovarian
SNB-75 CNS = tested on: SNB-75 CNS
A549 NSCLC = tested on: A549 NSCLC
EKVX NSCLC = tested on: EKVX NSCLC
OVCAR-4 ovarian = tested on: OVCAR-4 ovarian
PC-3 prostate = tested on: PC-3 prostate
MCF7 breast = tested on: MCF7 breast
MDA-MB-231 breast = tested on: MDA-MB-231 breast
NCI-H460 lung = tested on: NCI-H460 lung
UACC-62 melanoma = tested on: UACC-62 melanoma
HOP-92 NSCLC = tested on: HOP-92 NSCLC
LOX IMVI melanoma = tested on: LOX IMVI melanoma
CCRF-CEM leukemia = tested on: CCRF-CEM leukemia
COLO 205 colon = tested on: COLO 205 colon
UO-31 renal = tested on: UO-31 renal
IGROV1 ovarian = tested on: IGROV1 ovarian
RPMI-8226 leukemia = tested on: RPMI-8226 leukemia
HCT-116 colon = tested on: HCT-116 colon
HOP-62 NSCLC = tested on: HOP-62 NSCLC
HL-60(TB) leukemia = tested on: HL-60(TB) leukemia
NCI/ADR-RES ovarian = tested on: NCI/ADR-RES ovarian
HCT-15 colon = tested on: HCT-15 colon
T-47D breast = tested on: T-47D breast
MDA-MB-435 = tested on: MDA-MB-435
CAKI-1 renal = tested on: CAKI-1 renal
DU-145 prostate = tested on: DU-145 prostate
A498 renal = tested on: A498 renal
U251 CNS = tested on: U251 CNS
MALME-3M melanoma = tested on: MALME-3M melanoma
NCI-H522 lung = tested on: NCI-H522 lung
M14 melanoma = tested on: M14 melanoma
SF-268 CNS = tested on: SF-268 CNS
OVCAR-5 ovarian = tested on: OVCAR-5 ovarian
MOLT-4 leukemia = tested on: MOLT-4 leukemia
K-562 leukemia = tested on: K-562 leukemia
SNB-19 CNS = tested on: SNB-19 CNS
NCI-H23 lung = tested on: NCI-H23 lung
ACHN renal = tested on: ACHN renal
BT-549 breast = tested on: BT-549 breast
HS 578T breast = tested on: HS 578T breast
HT29 colon = tested on: HT29 colon
UACC-257 melanoma = tested on: UACC-257 melanoma
RXF 393 renal = tested on: RXF 393 renal
NCI-H226 lung = tested on: NCI-H226 lung
SN12C renal = tested on: SN12C renal
SF-295 CNS = tested on: SF-295 CNS
786-0 renal = tested on: 786-0 renal
SK-MEL-28 melanoma = tested on: SK-MEL-28 melanoma
OVCAR-8 ovarian = tested on: OVCAR-8 ovarian
SR leukemia = tested on: SR leukemia
KM12 colon = tested on: KM12 colon

O=C(NNc1nc2cc(F)cc(F)c2n2cccc12)c1cnccn1
GI50 (TK-10 renal): 613 nM | TGI (TK-10 renal): 10500 nM | GI50 (HCC-2998 colon): 564 nM | TGI (HCC-2998 colon): 14900 nM | GI50 (SK-MEL-5 melanoma): 1050 nM | TGI (SK-MEL-5 melanoma): 5760 nM | GI50 (SK-MEL-2 melanoma): 893 nM | TGI (SK-MEL-2 melanoma): 4370 nM | GI50 (SW-620 colon): 402 nM | TGI (SW-620 colon): 14400 nM | GI50 (SF-539 CNS): 436 nM | TGI (SF-539 CNS): 10300 nM | GI50 (SK-OV-3 ovarian): 539 nM | TGI (SK-OV-3 ovarian): 7270 nM | GI50 (SNB-75 CNS): 1130 nM | TGI (SNB-75 CNS): 9370 nM | GI50 (A549 NSCLC): 288 nM | TGI (A549 NSCLC): 11300 nM | GI50 (EKVX NSCLC): 320 nM | TGI (EKVX NSCLC): 12000 nM | GI50 (OVCAR-4 ovarian): 302 nM | TGI (OVCAR-4 ovarian): 8990 nM | GI50 (PC-3 prostate): 448 nM | TGI (PC-3 prostate): 13500 nM | GI50 (MCF7 breast): 353 nM | TGI (MCF7 breast): 7610 nM | GI50 (MDA-MB-231 breast): 807 nM | TGI (MDA-MB-231 breast): 12300 nM | GI50 (NCI-H460 lung): 178 nM | TGI (NCI-H460 lung): 3010 nM | GI50 (UACC-62 melanoma): 407 nM | TGI (UACC-62 melanoma): 3850 nM | GI50 (HOP-92 NSCLC): 851 nM | TGI (HOP-92 NSCLC): 7350 nM | GI50 (LOX IMVI melanoma): 211 nM | TGI (LOX IMVI melanoma): 5930 nM | GI50 (CCRF-CEM leukemia): 163 nM | TGI (CCRF-CEM leukemia): > 100000 nM | GI50 (COLO 205 colon): 324 nM | TGI (COLO 205 colon): 4560 nM | GI50 (UO-31 renal): 107 nM | TGI (UO-31 renal): 2930 nM | GI50 (IGROV1 ovarian): 206 nM | TGI (IGROV1 ovarian): 10700 nM | GI50 (RPMI-8226 leukemia): 379 nM | TGI (RPMI-8226 leukemia): > 100000 nM | GI50 (HCT-116 colon): 297 nM | TGI (HCT-116 colon): 6790 nM | GI50 (HOP-62 NSCLC): 147 nM | TGI (HOP-62 NSCLC): 4170 nM | GI50 (HL-60(TB) leukemia): 263 nM | GI50 (NCI/ADR-RES ovarian): 278 nM | TGI (NCI/ADR-RES ovarian): 5220 nM | GI50 (HCT-15 colon): 106 nM | TGI (HCT-15 colon): 21300 nM | GI50 (T-47D breast): 403 nM | TGI (T-47D breast): 12600 nM | GI50 (MDA-MB-435): 610 nM | TGI (MDA-MB-435): 13500 nM | GI50 (CAKI-1 renal): 340 nM | TGI (CAKI-1 renal): 6660 nM | GI50 (DU-145 prostate): 457 nM | TGI (DU-145 prostate): 13700 nM | GI50 (A498 renal): 1370 nM | TGI (A498 renal): 5570 nM | GI50 (U251 CNS): 172 nM | TGI (U251 CNS): 8920 nM | GI50 (MALME-3M melanoma): 904 nM | TGI (MALME-3M melanoma): 10400 nM | GI50 (NCI-H522 lung): 392 nM | TGI (NCI-H522 lung): 7500 nM | GI50 (M14 melanoma): 279 nM | TGI (M14 melanoma): 2850 nM | GI50 (SF-268 CNS): 365 nM | TGI (SF-268 CNS): 14500 nM | GI50 (OVCAR-5 ovarian): 715 nM | TGI (OVCAR-5 ovarian): 14400 nM | GI50 (MOLT-4 leukemia): 291 nM | TGI (MOLT-4 leukemia): > 100000 nM | GI50 (K-562 leukemia): 364 nM | TGI (K-562 leukemia): > 100000 nM | GI50 (SNB-19 CNS): 426 nM | TGI (SNB-19 CNS): 16900 nM | GI50 (NCI-H23 lung): 872 nM | TGI (NCI-H23 lung): 15800 nM | GI50 (ACHN renal): 239 nM | TGI (ACHN renal): 10600 nM | GI50 (BT-549 breast): 1120 nM | TGI (BT-549 breast): 7680 nM | GI50 (HS 578T breast): 1740 nM | TGI (HS 578T breast): 24100 nM | GI50 (HT29 colon): 571 nM | TGI (HT29 colon): 8730 nM | GI50 (UACC-257 melanoma): 587 nM | TGI (UACC-257 melanoma): 3430 nM | GI50 (RXF 393 renal): 659 nM | TGI (RXF 393 renal): 4770 nM | GI50 (NCI-H226 lung): 1120 nM | TGI (NCI-H226 lung): 6890 nM | GI50 (SN12C renal): 641 nM | TGI (SN12C renal): 15000 nM | GI50 (SF-295 CNS): 250 nM | TGI (SF-295 CNS): 6450 nM | GI50 (786-0 renal): 371 nM | TGI (786-0 renal): 4020 nM | GI50 (SK-MEL-28 melanoma): 549 nM | TGI (SK-MEL-28 melanoma): 13500 nM | GI50 (OVCAR-8 ovarian): 279 nM | TGI (OVCAR-8 ovarian): 4910 nM | GI50 (SR leukemia): 80.1 nM | TGI (SR leukemia): > 87800 nM | GI50 (KM12 colon): 311 nM | TGI (KM12 colon): 12600 nM
